How the values were obtained:
Adenosine receptor A1 = molecular target: T1, Adenosine receptor A1 (Homo sapiens, UniProt P30542)
T1 sequence (P30542 whole entry): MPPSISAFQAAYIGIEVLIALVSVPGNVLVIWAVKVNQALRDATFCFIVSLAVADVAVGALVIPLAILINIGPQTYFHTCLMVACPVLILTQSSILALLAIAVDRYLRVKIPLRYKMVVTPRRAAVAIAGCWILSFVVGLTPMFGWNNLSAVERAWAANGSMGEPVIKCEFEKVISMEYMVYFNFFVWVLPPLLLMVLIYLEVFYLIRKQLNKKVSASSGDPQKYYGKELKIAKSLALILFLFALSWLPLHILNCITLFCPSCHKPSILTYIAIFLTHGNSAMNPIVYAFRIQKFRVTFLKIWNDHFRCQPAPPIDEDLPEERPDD

[1] = molecular target: T2, Cholecystokinin receptor type A (Homo sapiens, UniProt P32238)
T2 sequence (P32238 whole entry): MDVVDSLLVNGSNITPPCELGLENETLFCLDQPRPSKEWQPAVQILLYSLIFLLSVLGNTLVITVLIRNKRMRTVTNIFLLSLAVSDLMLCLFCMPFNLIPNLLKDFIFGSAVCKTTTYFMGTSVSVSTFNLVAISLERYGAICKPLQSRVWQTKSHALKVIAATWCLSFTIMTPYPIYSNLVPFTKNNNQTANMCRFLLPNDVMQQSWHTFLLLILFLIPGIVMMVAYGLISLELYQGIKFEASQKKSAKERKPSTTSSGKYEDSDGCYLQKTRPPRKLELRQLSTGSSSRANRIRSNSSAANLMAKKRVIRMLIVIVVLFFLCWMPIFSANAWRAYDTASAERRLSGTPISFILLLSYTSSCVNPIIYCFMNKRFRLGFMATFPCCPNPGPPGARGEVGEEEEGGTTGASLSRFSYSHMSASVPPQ

[2] = molecular target: 3',5'-cyclic-AMP phosphodiesterase 4D (Homo sapiens, UniProt Q08499); type: functional
Sequence of 3',5'-cyclic-AMP phosphodiesterase 4D (Q08499 whole entry): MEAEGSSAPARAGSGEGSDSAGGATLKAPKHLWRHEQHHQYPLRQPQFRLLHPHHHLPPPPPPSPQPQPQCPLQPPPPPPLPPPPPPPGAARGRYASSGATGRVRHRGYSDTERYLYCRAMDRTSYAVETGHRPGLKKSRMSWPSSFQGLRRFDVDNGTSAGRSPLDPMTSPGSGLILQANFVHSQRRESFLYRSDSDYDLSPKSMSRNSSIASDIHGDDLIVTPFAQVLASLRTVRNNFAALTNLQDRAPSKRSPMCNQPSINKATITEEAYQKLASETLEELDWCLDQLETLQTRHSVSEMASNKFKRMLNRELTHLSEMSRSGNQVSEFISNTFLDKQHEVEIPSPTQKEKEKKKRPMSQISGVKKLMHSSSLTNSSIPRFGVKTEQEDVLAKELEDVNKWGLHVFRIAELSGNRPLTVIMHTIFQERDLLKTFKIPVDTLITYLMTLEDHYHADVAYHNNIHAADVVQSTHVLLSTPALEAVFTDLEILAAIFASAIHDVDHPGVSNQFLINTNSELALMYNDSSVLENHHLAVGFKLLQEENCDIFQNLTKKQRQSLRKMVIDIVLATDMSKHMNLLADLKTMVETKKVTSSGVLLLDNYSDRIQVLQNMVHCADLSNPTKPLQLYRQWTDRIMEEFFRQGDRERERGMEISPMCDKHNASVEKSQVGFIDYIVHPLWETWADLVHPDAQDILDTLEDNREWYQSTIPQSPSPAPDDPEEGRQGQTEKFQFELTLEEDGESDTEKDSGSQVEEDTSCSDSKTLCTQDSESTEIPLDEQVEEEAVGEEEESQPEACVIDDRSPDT

[3] = molecular target: Growth hormone secretagogue receptor type 1 (Homo sapiens, UniProt Q92847)
Sequence of Growth hormone secretagogue receptor type 1 (Q92847 whole entry): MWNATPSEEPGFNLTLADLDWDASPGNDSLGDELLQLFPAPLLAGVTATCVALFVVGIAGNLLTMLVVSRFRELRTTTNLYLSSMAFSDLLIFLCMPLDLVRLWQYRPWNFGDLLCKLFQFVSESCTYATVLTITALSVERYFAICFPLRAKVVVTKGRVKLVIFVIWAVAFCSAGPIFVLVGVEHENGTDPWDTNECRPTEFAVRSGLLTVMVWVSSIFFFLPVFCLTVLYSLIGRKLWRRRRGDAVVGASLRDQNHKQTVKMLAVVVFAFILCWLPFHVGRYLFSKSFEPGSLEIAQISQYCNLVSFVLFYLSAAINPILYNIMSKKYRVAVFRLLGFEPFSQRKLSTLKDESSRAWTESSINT

Adenosine receptor A2a = Adenosine receptor A2a (Homo sapiens, UniProt P29274)
Sequence of Adenosine receptor A2a (P29274 whole entry): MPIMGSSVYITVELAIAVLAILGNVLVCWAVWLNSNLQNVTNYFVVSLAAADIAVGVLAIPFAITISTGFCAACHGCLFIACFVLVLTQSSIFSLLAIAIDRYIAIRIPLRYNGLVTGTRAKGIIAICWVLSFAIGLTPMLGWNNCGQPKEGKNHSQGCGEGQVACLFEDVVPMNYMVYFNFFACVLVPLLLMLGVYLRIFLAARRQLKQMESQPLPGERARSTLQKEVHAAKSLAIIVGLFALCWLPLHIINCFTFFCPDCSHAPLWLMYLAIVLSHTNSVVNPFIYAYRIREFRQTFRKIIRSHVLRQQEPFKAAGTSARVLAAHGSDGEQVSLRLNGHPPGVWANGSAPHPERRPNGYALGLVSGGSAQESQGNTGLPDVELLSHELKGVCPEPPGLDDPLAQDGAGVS

[4] = molecular target: Glutamate receptor ionotropic, NMDA 1 (Rattus norvegicus, UniProt P35439)
[5] = molecular target: Beta-1 adrenergic receptor (Homo sapiens, UniProt P08588); type: functional
Sequence of Beta-1 adrenergic receptor (P08588 whole entry): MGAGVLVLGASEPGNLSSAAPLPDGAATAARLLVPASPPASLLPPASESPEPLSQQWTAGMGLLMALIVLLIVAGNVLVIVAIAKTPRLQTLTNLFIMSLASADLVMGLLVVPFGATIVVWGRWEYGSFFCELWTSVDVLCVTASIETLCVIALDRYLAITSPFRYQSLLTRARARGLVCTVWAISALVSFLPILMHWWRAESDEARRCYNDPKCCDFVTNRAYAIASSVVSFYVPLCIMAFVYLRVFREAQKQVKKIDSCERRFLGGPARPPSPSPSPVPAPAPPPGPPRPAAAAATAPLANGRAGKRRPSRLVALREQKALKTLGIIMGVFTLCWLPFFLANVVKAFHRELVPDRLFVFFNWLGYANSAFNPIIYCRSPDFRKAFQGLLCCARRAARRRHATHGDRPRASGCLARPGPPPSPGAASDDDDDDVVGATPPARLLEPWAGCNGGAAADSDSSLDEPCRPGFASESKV

[6] = molecular target: T3, Alpha-1A adrenergic receptor (Homo sapiens, UniProt P35348)
T3 sequence (P35348 whole entry): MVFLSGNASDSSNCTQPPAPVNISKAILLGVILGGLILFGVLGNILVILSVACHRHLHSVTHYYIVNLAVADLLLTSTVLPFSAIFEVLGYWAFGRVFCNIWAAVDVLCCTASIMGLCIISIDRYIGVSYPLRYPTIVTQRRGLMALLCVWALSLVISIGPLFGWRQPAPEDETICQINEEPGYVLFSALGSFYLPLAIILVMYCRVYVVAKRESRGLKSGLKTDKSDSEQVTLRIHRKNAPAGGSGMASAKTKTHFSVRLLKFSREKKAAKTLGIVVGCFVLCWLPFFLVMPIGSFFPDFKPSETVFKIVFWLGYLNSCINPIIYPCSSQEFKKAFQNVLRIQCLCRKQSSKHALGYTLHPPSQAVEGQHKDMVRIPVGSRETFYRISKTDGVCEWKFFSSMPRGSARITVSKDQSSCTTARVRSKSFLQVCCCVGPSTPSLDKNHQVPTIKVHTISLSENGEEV

Thromboxane A2 receptor = molecular target: T4, Thromboxane A2 receptor (Homo sapiens, UniProt P21731)
T4 sequence (P21731 whole entry): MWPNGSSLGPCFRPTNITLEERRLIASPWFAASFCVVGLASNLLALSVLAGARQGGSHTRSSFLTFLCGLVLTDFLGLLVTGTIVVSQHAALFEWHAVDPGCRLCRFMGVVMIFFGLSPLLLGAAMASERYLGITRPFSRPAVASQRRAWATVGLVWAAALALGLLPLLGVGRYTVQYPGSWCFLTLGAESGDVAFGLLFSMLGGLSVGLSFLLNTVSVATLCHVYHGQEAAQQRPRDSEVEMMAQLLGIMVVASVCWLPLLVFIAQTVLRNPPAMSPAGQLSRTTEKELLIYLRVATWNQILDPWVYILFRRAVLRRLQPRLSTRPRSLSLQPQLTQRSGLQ

[7] = molecular target: T5, Alpha-2A adrenergic receptor (Homo sapiens, UniProt P08913); type: functional, cell-based
T5 sequence (P08913 whole entry): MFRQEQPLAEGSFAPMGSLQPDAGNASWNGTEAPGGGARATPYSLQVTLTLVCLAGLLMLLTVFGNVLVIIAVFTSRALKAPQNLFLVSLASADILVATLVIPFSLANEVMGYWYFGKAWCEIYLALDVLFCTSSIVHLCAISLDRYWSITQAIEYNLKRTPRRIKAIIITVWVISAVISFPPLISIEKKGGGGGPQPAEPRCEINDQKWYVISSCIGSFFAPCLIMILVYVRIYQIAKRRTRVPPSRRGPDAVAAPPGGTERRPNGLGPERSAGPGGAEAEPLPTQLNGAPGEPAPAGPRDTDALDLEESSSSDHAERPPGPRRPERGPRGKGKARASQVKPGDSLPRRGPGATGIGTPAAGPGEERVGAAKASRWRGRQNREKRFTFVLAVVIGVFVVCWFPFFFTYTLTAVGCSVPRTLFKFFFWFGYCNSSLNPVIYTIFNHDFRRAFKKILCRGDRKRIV

Mu-type opioid receptor = Mu-type opioid receptor (Homo sapiens, UniProt P35372)
Sequence of Mu-type opioid receptor (P35372 whole entry): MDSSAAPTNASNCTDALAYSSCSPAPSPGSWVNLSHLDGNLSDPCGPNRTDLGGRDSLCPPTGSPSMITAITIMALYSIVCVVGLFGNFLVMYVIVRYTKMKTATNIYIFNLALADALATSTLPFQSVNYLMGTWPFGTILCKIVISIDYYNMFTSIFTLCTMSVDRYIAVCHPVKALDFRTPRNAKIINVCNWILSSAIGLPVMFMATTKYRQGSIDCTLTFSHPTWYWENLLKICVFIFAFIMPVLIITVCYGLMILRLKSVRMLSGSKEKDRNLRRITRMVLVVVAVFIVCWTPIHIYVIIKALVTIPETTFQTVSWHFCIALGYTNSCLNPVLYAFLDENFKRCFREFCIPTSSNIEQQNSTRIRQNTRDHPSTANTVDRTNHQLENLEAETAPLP

[8] = molecular target: T6, Alpha-2B adrenergic receptor (Homo sapiens, UniProt P18089)
T6 sequence (P18089 whole entry): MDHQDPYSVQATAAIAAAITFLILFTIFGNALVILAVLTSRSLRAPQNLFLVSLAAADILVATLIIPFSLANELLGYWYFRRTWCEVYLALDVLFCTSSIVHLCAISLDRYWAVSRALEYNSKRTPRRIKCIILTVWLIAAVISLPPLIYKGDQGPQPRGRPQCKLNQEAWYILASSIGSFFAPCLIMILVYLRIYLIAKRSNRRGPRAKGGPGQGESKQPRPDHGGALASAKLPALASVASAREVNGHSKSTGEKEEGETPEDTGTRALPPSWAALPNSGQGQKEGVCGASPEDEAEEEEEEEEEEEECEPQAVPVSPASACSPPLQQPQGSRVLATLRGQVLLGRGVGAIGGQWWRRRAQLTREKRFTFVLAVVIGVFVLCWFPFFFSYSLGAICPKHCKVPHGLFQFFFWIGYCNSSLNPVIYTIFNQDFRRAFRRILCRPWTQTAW
Note: assay procedure not described here.

Row | SMILES | AC50 (Adenosine receptor A1) [µM] | AC50 [1] [µM] | AC50 [2] [µM] | AC50 [3] [µM] | AC50 (Adenosine receptor A2a) [µM] | AC50 [4] [µM] | AC50 [5] [µM] | AC50 [6] [µM] | AC50 (Thromboxane A2 receptor) [µM] | AC50 [7] [µM] | AC50 (Mu-type opioid receptor) [µM] | AC50 [8] [µM]
1 | COc1ccc(/C=C/C(=O)Nc2ccccc2C(=O)O)cc1OC | > 30 | > 30 | 21 | > 30 | > 30 | > 30 | > 30 | 18 | > 30 | > 30 | > 30 | 
2 | NCCCC(O)(P(=O)(O)O)P(=O)(O)O [ALENDRONIC ACID] | > 30 | > 30 | > 30 | > 30 | > 30 | > 10 | > 10 | > 10 | > 30 | > 10 |  | 
3 | CC(=O)OCC(=O)[C@@]1(O)CC[C@H]2[C@@H]3CCC4=CC(=O)CC[C@]4(C)C3=CC[C@@]21C [ANECORTAVE ACETATE] | > 10 | > 10 | > 30 | > 10 | > 10 | > 10 | > 10 | > 10 | > 10 | > 10 | > 30 | > 10
4 | NS(=O)(=O)c1cc2c(cc1C(F)(F)F)NC(Cc1ccccc1)NS2(=O)=O (stereo unspecified) [BENDROFLUMETHIAZIDE] | > 10 | > 10 | > 30 | > 10 | > 10 | > 10 | > 10 | > 10 | > 10 | > 10 | > 30 | > 10
5 | CCCCCCNC(=O)n1cc(F)c(=O)[nH]c1=O [CARMOFUR] | > 30 | > 30 | > 30 | > 30 | > 30 | > 30 | > 30 | > 30 | > 30 | > 30 |  | 
6 | CC(C)(C)NCC(O)c1cc(Cl)c(N)c(Cl)c1 (stereo unspecified) [CLENBUTEROL] | > 30 | > 30 | > 30 | > 30 | > 30 | > 30 | 0.112 | 13 | > 30 | > 30 |  | 
7 | COC(=O)N[C@@H](C)CNc1nccc(-c2cn(C(C)C)nc2-c2cc(Cl)cc(NS(C)(=O)=O)c2F)n1 [ENCORAFENIB] | > 30 | > 30 | 4.4 | > 30 | > 30 | > 30 | > 30 | > 30 | > 30 | > 30 |  | > 30
8 | Clc1ccc2c(c1)C(c1ccccc1)=NCc1nncn1-2 [ESTAZOLAM] | > 30 | > 30 | 10 | > 30 | > 30 | > 10 | > 10 | > 10 | > 30 | > 10 | > 30 | > 10
9 | Nc1ccn([C@@H]2O[C@H](CO)[C@@H](O)C2(F)F)c(=O)n1 [GEMCITABINE] | > 30 | > 30 | 16 | > 30 | > 30 | > 10 | > 30 | > 10 | > 30 | > 10 | > 30 | 
10 | CC(=O)Nc1c(I)c(C(=O)N[C@H]2C(O)O[C@H](CO)[C@@H](O)[C@@H]2O)c(I)c(N(C)C(C)=O)c1I (stereo partly specified) [METRIZAMIDE] | > 10 | > 10 | > 30 | > 10 | > 10 | > 10 | > 10 | > 10 | > 10 | > 10 | > 30 | > 10
11 | CC(=O)O[C@H]1C[C@@H]2CC[C@@H]3[C@H](CC[C@@]4(C)[C@H]3C[C@H]([N+]3(C)CCCCC3)[C@@H]4OC(C)=O)[C@@]2(C)C[C@@H]1[N+]1(C)CCCCC1 [PANCURONIUM] | > 10 | > 10 | > 30 | > 10 | > 10 | > 10 | > 10 | > 10 | > 10 | > 10 | > 30 | > 10
12 | CC(=O)c1ccc2c(c1)N(CCCN1CCC(CCO)CC1)c1ccccc1S2 [PIPERACETAZINE] | > 30 | > 30 | > 30 | > 30 | > 30 | > 30 | > 30 | 0.18 | > 30 | > 30 |  | 0.068
13 | [H]/N=C(/N)N[C@H]1[C@H](O)[C@@H](O)[C@H](O[C@@H]2O[C@@H](C)[C@](O)(C=O)[C@H]2O[C@@H]2O[C@@H](CO)[C@H](O)[C@@H](O)[C@@H]2NC)[C@@H](N/C(N)=N\[H])[C@@H]1O [STREPTOMYCIN] | > 30 | > 30 | > 30 | > 30 | > 30 | > 30 | > 30 | > 10 | > 30 | > 30 | > 10 | 
14 | Cc1cccc(N(C)C(=S)Oc2ccc3ccccc3c2)c1 [TOLNAFTATE] | > 10 | > 10 | > 30 | > 10 | > 10 | > 10 | > 10 | > 30 | > 10 | > 10 | > 30 | 

From ChEMBL document CHEMBL5291721, “A preclinical secondary pharmacology resource illuminates target-adverse drug reaction associations of marketed drugs” (Nat Commun, 2023)
